According to patent US8975260B2, “Pyridazinones, method of making, and method of use thereof” (Genetech, Inc, priority 2010, dated 2015):
pIC50: −log10 of the molar value.

What was measured:
[1] = target: full length human wildtype Btk (Homo sapiens (Human), UniProt Q06187); assay: Biochemical Btk Kinase Assay
Experimental: Formula I compounds were tested by a standard biochemical Btk Kinase Assay (Example 901). A generalized procedure for a standard biochemical Btk Kinase Assay that can be used to test Formula I compounds is as follows. […] Btk enzyme is prepared as follows: full length human wildtype Btk (accession number NM-000061) with a C-terminal V5 and 6× His tag was subcloned into pFastBac vector for making baculovirus carrying this epitope-tagged Btk. Generation of baculovirus is done based on Invitrogen's instructions detailed in its published protocol “Bac-to-Bac Baculovirus Expression Systems” (Cat. Nos. 10359-016 and 10608-016). […] A quantity of 1.25 μL of compounds in 5% DMSO is transferred to a 96-well ½ area Costar polystyrene plate. […] A quantity of 18.75 μL of master mix minus enzyme (as a negative control) and master mix plus enzyme is transferred to appropriate wells in 96-well ½ area costar polystyrene plate. […] The plate is read using time-resolved fluorescence with a Perkin Elmer Envision using excitation filter 330 nm, emission filter 665 nm, and 2nd emission filter 615 nm. IC50 values are subsequently calculated. Alternatively, the Lanthascreen assay can be used to evaluate Btk activity through quantification of its phosphorylated peptide product. […] Detection is determined on a Perkin Elmer Envision with 340 nm excitation and emission at 495 nm and 520 nm. […]

[2] = system: CD69 by B lymphocytes in human whole blood; assay: CD69 Whole Blood Assay; type: cell-based; details: Lymphocyte; human whole blood activated with goat F(ab')2 anti-human IgM, 20 hours; CD69 positive cells that are also CD20 positive
Source text: A CD69 Whole Blood Assay can be conducted on Formula I compounds to determine the ability of compounds to inhibit the production of CD69 by B lymphocytes in human whole blood activated by crosslinking surface IgM with goat F(ab′)2 anti-human IgM (Example 907).
Human blood is obtained from healthy volunteers, with the following restrictions: 1 week drug-free, non-smokers. Blood (approximately 20 mls to test 8 compounds) is collected by venipuncture into Vacutainer® (Becton, Dickinson and Co.) tubes with sodium heparin.
Solutions of Formula I compounds at 10 mM in DMSO are diluted 1:10 in 100% DMSO, then are diluted by three-fold serial dilutions in 100% DMSO for a ten point dose-response curve. The compounds are further diluted 1:10 in PBS and then an aliquot of 5.5 μl of each compound is added in duplicate to a 2 ml 96-well plate; 5.5 μl of 10% DMSO in PBS is added as control and no-stimulus wells. Human whole blood—HWB (100 μl) is added to each well. After mixing the plates are incubated at 37° C., 5% CO2, 100% humidity for 30 minutes. […] Data acquired and Mean Fluorescence Intensity values were obtained using BD Biosciences DIVA Software. Results are initially analyzed by FACS analysis software (Flow Jo). […] The IC50 values are calculated by Prism version 5, using a nonlinear regression curve fit.

Sequence of full length human wildtype Btk (Q06187 whole entry): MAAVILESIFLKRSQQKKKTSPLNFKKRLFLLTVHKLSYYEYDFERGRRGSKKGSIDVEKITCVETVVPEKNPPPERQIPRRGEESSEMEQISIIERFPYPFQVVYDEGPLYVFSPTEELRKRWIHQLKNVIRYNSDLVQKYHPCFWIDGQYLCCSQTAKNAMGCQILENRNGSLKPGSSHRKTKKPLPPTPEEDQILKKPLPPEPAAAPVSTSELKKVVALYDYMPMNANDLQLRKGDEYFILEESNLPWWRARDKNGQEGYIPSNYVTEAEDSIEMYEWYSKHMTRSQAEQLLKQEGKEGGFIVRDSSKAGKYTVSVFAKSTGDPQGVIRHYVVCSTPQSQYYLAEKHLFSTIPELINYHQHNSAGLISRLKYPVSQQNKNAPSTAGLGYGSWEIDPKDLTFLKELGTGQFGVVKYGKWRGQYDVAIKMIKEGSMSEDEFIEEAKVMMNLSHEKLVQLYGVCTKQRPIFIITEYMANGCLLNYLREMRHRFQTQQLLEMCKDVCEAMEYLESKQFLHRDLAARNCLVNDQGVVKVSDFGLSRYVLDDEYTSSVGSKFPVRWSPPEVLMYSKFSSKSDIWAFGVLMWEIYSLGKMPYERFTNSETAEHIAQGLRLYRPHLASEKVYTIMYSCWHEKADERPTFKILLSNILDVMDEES

Row | melting point [°C] | SMILES | pIC50 [1] | pIC50 [2]
1 | 174 to 176 | CCn1ccc(Nc2cc(-c3cccc(N4Cc5cc(C(C)(C)C)ccc5C4=O)c3CO)nn(C)c2=O)n1 [Compound 102, 5-tert-Butyl-2-(3-(5-(1-ethyl-1H-pyrazol-3-ylamino)-1-methyl-6-oxo-1,6-dihydropyridazin-3-yl)-2-(hydroxymethyl)phenyl)isoindolin-1-one] | – | –
2 | 236 to 238 | Cn1nc(-c2cccc(N3Cc4cc(C(C)(C)C)ccc4C3=O)c2CO)cc(Nc2ccncn2)c1=O [Compound 103, 5-tert-Butyl-2-(2-(hydroxymethyl)-3-(1-methyl-6-oxo-5-(pyrimidin-4-ylamino)-1,6-dihydropyridazin-3-yl)phenyl)isoindolin-1-one] | – | –
3 | 236 to 237 | Cn1nc(-c2cccc(N3Cc4cc(C(C)(C)C)ccc4C3=O)c2CO)cc(Nc2ccccn2)c1=O [Compound 104, 5-tert-Butyl-2-(2-(hydroxymethyl)-3-(1-methyl-6-oxo-5-(pyridin-2-ylamino)-1,6-dihydropyridazin-3-yl)phenyl)isoindolin-1-one] | – | –
4 | 202 to 204 | Cn1nc(-c2cccc(N3Cc4cc(C(C)(C)C)ccc4C3=O)c2CO)cc(Nc2ccn(C3CNC3)n2)c1=O [Compound 105, 2-(3-(5-(1-(Azetidin-3-yl)-1H-pyrazol-3-ylamino)-1-methyl-6-oxo-1,6-dihydropyridazin-3-yl)-2-(hydroxymethyl)phenyl)-5-tert-butylisoindolin-1-one] | – | –

Continued, compound first:

Row | SMILES | melting point [°C] | pIC50 [1] | pIC50 [2]
5 | CCN(C)c1ccc2c(c1)CN(c1cccc(-c3cc(Nc4cc5n(n4)CCN(C)C5)c(=O)n(C)n3)c1CO)C2=O [Compound 106, 5-(Ethyl(methyl)amino)-2-(2-(hydroxymethyl)-3-(1-methyl-5-(5-methyl-4,5,6,7-tetrahydropyrazolo[1,5-a]pyrazin-2-ylamino)-6-oxo-1,6-dihydropyridazin-3-yl)phenyl)isoindolin-1-one] | 145 to 147 | – | –
6 | Cc1c(-c2cc(Nc3cc4n(n3)CCN(C)C4)c(=O)[nH]n2)cccc1N1Cc2ccc(C(C)(C)C)cc2C1=O [Compound 107, 6-tert-Butyl-2-(2-methyl-3-(5-(5-methyl-4,5,6,7-tetrahydropyrazolo[1,5-a]pyrazin-2-ylamino)-6-oxo-1,6-dihydropyridazin-3-yl)phenyl)isoindolin-1-one] | 208 to 210 | 7.85 | 6.34
7 | Cc1c(-c2cc(Nc3cc4n(n3)CCN(C)C4)c(=O)n(COP(=O)([O-])[O-])n2)cccc1N1Cc2cc(C(C)(C)C)sc2C1=O.[Na+].[Na+] [Compound 108, Sodium (3-(3-(2-tert-Butyl-6-oxo-4H-thieno[2,3-c]pyrrol-5(6H)-yl)-2-methylphenyl)-5-(5-methyl-4,5,6,7-tetrahydropyrazolo[1,5-a]pyrazin-2-ylamino)-6-oxopyridazin-1(6H)-yl)methyl Phosphate] | 240 to 242 | – | –
8 | CN1CCn2nc(Nc3cc(-c4cccc(N5Cc6cc(C(C)(C)C)ccc6C5=O)c4CO)nn(C)c3=O)cc2C1 [Compound 145, 5-tert-butyl-2-[2-(hydroxymethyl)-3-[1-methyl-5-({5-methyl-4H,5H,6H,7H-pyrazolo[1,5-a]pyrazin-2-yl}amino)-6-oxo-1,6-dihydropyridazin-3-yl]phenyl]-2,3-dihydro-1H-isoindol-1-one] | – | – | 7.04
